The values that follow are results of earlier work, collected in patent publication US6849271B2, “Microcapsule matrix microspheres, absorption-enhancing pharmaceutical compositions and methods” (Verion, Inc., priority 2001, dated 2005).

For this series the following is noted: published by the FDA.

In the case of `CC1(C)S[C@@H]2[C@H](NC(=O)[C@H](N)c3ccc(O)cc3)C(=O)N2[C@H]1C(=O)O` [Amoxicillin], the permeability class result was “Low”.
Turning to `C[C@](N)(Cc1ccc(O)c(O)c1)C(=O)O` [L-Methyldopa], the permeability class entry is on record as “Low”.
Consider `OC[C@@H](O)[C@@H](O)[C@H](O)[C@H](O)CO` [Mannitol], for which the permeability class entry is reported as “Low”.
Consider `CNC(=C[N+](=O)[O-])NCCSCc1ccc(CN(C)C)o1` [Ranitidine], for which the permeability class entry is recorded as “Low”.
